Series [1] deals with T1, human adenosine A2A receptor (Homo sapiens, UniProt P29274).
T1 construct: expressed in transfected cells; host or cells: CHO cells, semliki forest virus expression system; membrane preparation
The series can be described thus: [3H]-SCH-58261 binding assay on human adenosine A2A receptor expressed in CHO cell membranes (SPA). To be noted: displacement of [3H]-SCH-58261 (1 nM); recombinant receptor in CHO membranes; Ki by Cheng-Prussoff equation; read-out: hA2 (pKi) (converted). The protocol:
Human Adenosine A2A Receptor
The human adenosine A2A receptor was recombinantly expressed in Chinese hamster ovary (CHO) cells using the semliki forest virus expression system. Cells were harvested, washed twice by centrifugation, homogenized and again washed by centrifugation. The final washed membrane pellet was suspended in a Tris (50 mM) buffer containing 120 mM NaCl, 5 mM KCl, 2 mM CaCl2 and 10 mM MgCl2 (pH 7.4) (buffer A). The [^3H]-SCH-58261 (Dionisotti et al., 1997, Br J Pharmacol 121, 353; 1 nM) binding assay was carried out in 96-well plates in the presence of 2.5 μg of membrane protein, 0.5 mg of Ysi-poly-1-lysine SPA beads and 0.1 U adenosine deaminase in a final volume of 200 μl of buffer A. Non-specific binding was defined using xanthine amine congener (XAC; 2 μM). Compounds were tested at 10 concentrations from 10 μM-0.3 nM. All assays were conducted in duplicate and repeated at least two times. Assay plates were incubated for 1 hour at room temperature before centrifugation and then bound ligand determined using a Packard Topcount scintillation counter. IC50 values were calculated using a non-linear curve fitting program and Ki values calculated using the Cheng-Prussoff equation.
For orientation: Loss of bound radioactivity is the signal in a displacement assay; it reports binding, not function.

T1 sequence (P29274 whole entry): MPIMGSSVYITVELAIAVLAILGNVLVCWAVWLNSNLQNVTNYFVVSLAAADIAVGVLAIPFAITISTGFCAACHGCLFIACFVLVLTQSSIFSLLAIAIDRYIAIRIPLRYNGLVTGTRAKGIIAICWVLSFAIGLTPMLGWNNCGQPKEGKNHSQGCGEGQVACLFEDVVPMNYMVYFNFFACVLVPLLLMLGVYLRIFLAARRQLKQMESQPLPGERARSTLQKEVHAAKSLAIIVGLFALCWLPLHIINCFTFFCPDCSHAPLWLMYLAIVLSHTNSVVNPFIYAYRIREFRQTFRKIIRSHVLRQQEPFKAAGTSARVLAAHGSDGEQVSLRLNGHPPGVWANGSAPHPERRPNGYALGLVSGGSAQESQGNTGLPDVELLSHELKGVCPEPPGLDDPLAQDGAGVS

For `COCCN(C)Cc1ncc(C(=O)Nc2nc3c(OC)ccc(N4CCOCC4)c3s2)n1C` [Example 1, 2-{[(2-Methoxy-ethyl)-methyl-amino]-methyl}-3-methyl-3H-imidazole-4-carboxylic acid (4-methoxy-7-morpholin-4-yl-benzothiazol-2-yl)-amide], the melting point (usually the temperature, or range, at which the solid turns liquid) lay in the range of 176 to 178 °C. Besides, the Ki in series [1] is 0.501 nM. Take `COc1ccc(N2CCOCC2)c2sc(NC(=O)c3cnc(CN(C)C)n3C)nc12` [Example 2, 2-Dimethylaminomethyl-3-methyl-3H-imidazole-4-carboxylic acid (4-methoxy-7-morpholin-4-yl-benzothiazol-2-yl)-amide]: the melting point lay within 229 to 231 °C. Also, the Ki in series [1] was 0.631 nM. `COc1ccc(N2CCOCC2)c2sc(NC(=O)c3cnc(CN4CCOCC4)n3C)nc12` [Example 3, 3-Methyl-2-morpholin-4-ylmethyl-3H-imidazole-4-carboxylic acid (4-methoxy-7-morpholin-4-yl-benzothiazol-2-yl)-amide] returned a melting point of 244 to 246 °C. Also, in series [1], the Ki is 0.631 nM. The molecule `COc1ccc(N2CCOCC2)c2sc(NC(=O)c3cnc(CN4CCCC4)n3C)nc12` [Example 4, 3-Methyl-2-pyrrolidin-1-ylmethyl-3H-imidazole-4-carboxylic acid (4-methoxy-7-morpholin-4-yl-benzothiazol-2-yl)-amide] registered a melting point of 255 °C. For the same molecule, in series [1], the Ki was 1.58 nM. Taken in the same sequence, the figures for `COc1ccc(N2CCOCC2)c2sc(NC(=O)c3cnn(CCN4CCCC4)c3)nc12` [Example 5, 1-(2-Pyrrolidin-1-yl-ethyl)-1H-pyrazole-4-carboxylic acid (4-methoxy-7-morpholin-4-yl-benzothiazol-2-yl)-amide] were 190 to 192 °C and 0.794 nM. With `COc1ccc(N2CCOCC2)c2sc(NC(=O)c3cnn(CCN(C)C)c3)nc12` [Example 6, 1-(2-Dimethylamino-ethyl)-1H-pyrazole-4-carboxylic acid (4-methoxy-7-morpholin-4-yl-benzothiazol-2-yl)-amide], the melting point was in the range of 203 to 205 °C. The Ki in series [1] was 0.794 nM. Taken in the same sequence, the figures for `COc1ccc(N2CCOCC2)c2sc(NC(=O)c3cnn(CCN4CCOCC4)c3)nc12` [Example 7, 1-(2-Morpholin-4-yl-ethyl)-1H-pyrazole-4-carboxylic acid (4-methoxy-7-morpholin-4-yl-benzothiazol-2-yl)-amide] were 204 to 207 °C and 1 nM.

Regarding `COCCn1cc(C(=O)Nc2nc3c(OC)ccc(N4CCOCC4)c3s2)cn1` [Example 8, 1-(2-Methoxy-ethyl)-1H-pyrazole-4-carboxylic acid (4-methoxy-7-morpholin-4-yl-benzothiazol-2-yl)-amide], in series [1], the Ki was 0.398 nM. In the case of `COCc1ncc(C(=O)Nc2nc3c(OC)ccc(N4CCOCC4)c3s2)n1C` [Example 9, 2-Methoxymethyl-3-methyl-3H-imidazole-4-carboxylic acid (4-methoxy-7-morpholin-4-yl-benzothiazol-2-yl)-amide], the melting point was 242 to 245 °C. The Ki in series [1] is 0.501 nM.

For the origin of these results see patent publication US7371749B2, “Benzothiazole derivatives” (Hoffmann-La Roche Inc., priority 2004, dated 2008).
